{"source": "patent US10632106B2", "about": "“Methods of cancer treatment with 2-(1′H-Indole-3′-carbonyl)-thiazole-4-carboxylic acid methyl ester” (Ariagen, Inc., priority 2009, dated 2020)", "key": {"[1]": {"system": "Murine Lewis lung cancer cell line LLC tumors", "assay": "Syngeneic murine Lewis lung cancer (LLC) model in C57BL/6 mice", "type": "in vivo", "settings": "for TGI (Tumor Growth Inhibition): TGI=ΔT/ΔC×100%", "experimental": "All the procedures related to animal handling, care, and the treatment in the study were performed following guidelines approved by an Institutional Animal Care and Use Committee (IACUC) of Crown Bioscience, Inc. (Santa Clara, Calif., USA, a contract research organization we hired) based on the guidance of the Association for Assessment and Accreditation of Laboratory Animal Care (AAALAC). Animals were checked for any effects of tumor growth and drug treatment on normal behavior such as mobility, food and water consumption, body weight gain/loss (gross body weights were measured twice weekly), eye/hair matting, and any other abnormal effect. Death and observed clinical signs were recorded on the basis of the number of animals within each group. Individual animals with a tumor volume exceeding 3,000 mm^3 or animals of a group with a mean tumor volume exceeding 2,000 mm^3 were euthanized. In addition, animals showing signs of severe distress and/or pain, dropping body weight more than 20% from that at the start of treatment, or losing the capability of accessing adequate food or water were humanely sacrificed.\nTumor volume was measured twice weekly in two dimensions using a caliper and the volume was calculated with a formula of: V=0.5 a×b^2, where a and b are the long and short diameter (in mm) of a tumor, respectively. The tumor volume was then used for calculations of both TGI (Tumor Growth Inhibition) and TGD (Tumor Growth Delay). The TGI was determined by: TGI=ΔT/ΔC×100%, where ΔT was a difference between the mean tumor volume at a specified day of observation and that at the day treatment starts (day 1) for a drug treated group whereas ΔC was the same difference measured for the control group. The TGD was calculated as: TGD=T−C, where T was the time (in days) required for tumors in a drug treated group to reach a predetermined mean tumor volume and C the time (in days) in the control group to reach the same volume. A tumor weight was derived by equating 1,000 mm^3 in volume to 1,000 mg in weight. A net body weight was then derived by subtracting a tumor weight from a corresponding gross body weight with the tumor.\nSummary statistics, including mean and the standard error of the mean (SEM), are provided for the tumor volume of each group at each time point. Statistical analysis of difference in tumor volume among groups was conducted on a data set either at the best therapeutic time point or at the final dosing day as indicated. The tumor volume data were log-transformed and evaluated using a one-way ANOVA followed by Tukey's test when significance was observed. All data were analyzed using SPSS 16.0 and p<0.05 was considered to be statistically significant.\nMurine Lewis lung cancer cell line LLC (ATCC) was cultured as described for LNCaP in Example 1 except DMEM, instead of RPMI-1640, medium being used. Each female C57BL/6 mice, 6 to 8 weeks of age, was inoculated with 3×10^5 LLC cells in 0.1 ml of PBS for tumor development. ITE treatment was started when a mean tumor volume reached 80 to 120 mm^3. All the other materials and methodologies were the same as that described in Example 1."}, "[2]": {"system": "SW116 (human colon cancer) xenografts", "assay": "SW116 xenograft growth inhibition", "type": "in vivo", "settings": "ITE 100-200 mg/kg i.p. once daily", "experimental": "All the procedures related to animal handling, care, and the treatment in the study were performed following guidelines of KeyGen Biotechn Co., Ltd. (Nanjing, China), a contract research organization we hired, based on the guidance of the Association for Assessment and Accreditation of Laboratory Animal Care (AAALAC). Animals were checked for any effects of tumor growth and drug treatment on normal behavior such as mobility, food and water consumption, body weight gain/loss (bodyweights were measured every two days), eye/hair matting, and any other abnormal effect. Death and observed clinical signs were recorded. Individual animals with a tumor volume exceeding 3,000 mm^3 or animals of a group with a mean tumor volume exceeding 2,000 mm^3 were euthanized. In addition, animals showing signs of severe distress and/or pain or losing the capability of accessing adequate food or water were humanely sacrificed.\nCell lines HCT116, Siha, MFC were cultured in DMEM medium (high glucose) supplemented with 10% fetal bovine serum (FBS), SW116 and T24 in RPMI-1640 medium with 10% FBS, M14 and A375 in DMEM medium (high glucose) with 10% calf serum (CS), SGC7901 and Ketr-3 in RPMI-1640 medium with 10% CS, and CFPAC-1 in IMDM medium with 10% FBS. All of the cells were cultured, in the presence of 100 U/ml penicillin and 100 μg/ml streptomycin, at 37° C. in an atmosphere of 5% CO2 in air. […] The cells growing in an exponential phase were harvested and counted for tumor inoculation. Cell lines 5180 and U14 were maintained in ascites (peritoneal cavity fluid) of mice and were harvested and counted for tumor inoculation. […]\nTumor volume was measured every two days in two dimensions using a caliper and the volume was calculated with a formula of: V=0.5 a×b^2, where a and b are the long and short diameter (in mm) of a tumor, respectively. […] The TGD was calculated as: TGD=T−C, where T was the time (in days) required for tumors in a drug treated group to reach a predetermined mean tumor volume and C the time (in days) in the control group to reach the same volume. […]"}}, "data": [{"smiles": "COC(=O)c1csc(C(=O)c2c[nH]c3ccccc23)n1", "note": "[ITE, 2-(1′H-indole-3′-carbonyl)-thiazole-4-carboxylic acid methyl ester]", "values": [{"measurement": "TGI (Tumor Growth Inhibition)", "setting": "[1]; 20 mg/kg b.w. i.p. once daily, day 15", "value": 65, "unit": "%"}, {"measurement": "tolerability by body weight change monitoring", "setting": "[1]; 80 mg/kg b.w. i.p. once daily", "value": "tolerated well"}, {"measurement": "tumor elimination in one mouse of the ITE group (mouse No. 33)", "setting": "[1]; 80 mg/kg b.w. i.p. once daily for 28 days, stayed tumor free for one more month of observation", "value": "its tumor was no longer palpable at day 13"}, {"measurement": "TGD (Tumor Growth Delay)", "setting": "[1]; 80 mg/kg b.w. i.p. once daily, at a tumor volume of 1000 mm^3", "value": 7, "unit": "days"}, {"measurement": "TGI (Tumor Growth Inhibition)", "setting": "[1]; 80 mg/kg b.w. i.p. once daily, day 20", "value": 42, "unit": "%"}, {"measurement": "TGD", "setting": "[2]; TGD at Vol. 1,000", "value": 9, "unit": "days"}, {"measurement": "TGI (%)", "setting": "[2]; TGI at day 20, TGI=(1−ΔT/ΔC)×100%", "value": 67, "unit": "%"}, {"measurement": "Weight Loss", "setting": "[2]; end of therapy relative to beginning", "value": 15, "unit": "%"}]}]}
